Experimental data: ChEMBL document CHEMBL5346948, “Expanding Chemical Probe Space: Quality Criteria for Covalent and Degrader Probes” (J Med Chem, 2023)
Each block holds one molecule with its values, some of them ahead of it.

Legend:
[1] = test system: GTPase KRas (Homo sapiens), P01116 [G12C]; experiment: Binding affinity to Hexahistidine-tagged recombinant human KRAS G12C mutant (1 to 169 residues) expressed in Escherichia coli assessed as kinact/Ki ratio
[2] = target: T1, Zinc finger protein Helios (Homo sapiens, UniProt Q9UKS7); experiment: Induction of IKZF2 degradation in human GripTite 293 MSR cells; assay type: cell-based
[3] = target: T1, Zinc finger protein Helios; experiment: Induction of IKZF2 degradation in human GripTite 293 MSR cells assessed as maximal degradation relative to control; assay type: cell-based
[4] = target: T2, von Hippel-Lindau disease tumor suppressor/Bcl-2-like protein 1 (Homo sapiens, UniProt Q07817+P40337); experiment: Protac activity at VHL/BCL-XL in human MOLT-4 cells assessed as induction of BCL-XL degradation incubated for 16 hrs by immunoblot analysis; assay type: cell-based
[5] = target: T2, von Hippel-Lindau disease tumor suppressor/Bcl-2-like protein 1; experiment: Protac activity at VHL/BCL-XL in human MOLT-4 cells assessed as induction of protein degradation by measuring maximal degradation relative to control; assay type: cell-based
[6] = target: T3, Protein cereblon/RAC-alpha serine/threonine-protein kinase (Homo sapiens, UniProt P31749+Q96SW2); experiment: Protac activity at CRBN/Akt1 in human JeKo-1 cells assessed as Akt1 degradation by immunoblot analysis; assay type: cell-based
[7] = target: T3, Protein cereblon/RAC-alpha serine/threonine-protein kinase; experiment: Protac activity at CRBN/Akt1 in human JeKo-1 cells assessed as induction of Akt1 degradation by measuring maximal protein degradation relative to control; assay type: cell-based
[8] = target: von Hippel-Lindau disease tumor suppressor/SWI/SNF-related matrix-associated actin-dependent regulator of chromatin subfamily A member 2 (Homo sapiens) (UniProt P51531+P40337); experiment: PROTAC activity at SMARCA2/VHL in human MV4-11 cells assessed as induction of protein degradation by measuring maximal protein degradation relative to control; assay type: cell-based
[9] = target: Cereblon/Bromodomain-containing protein 9 (Homo sapiens); experiment: PROTAC activity at CRBN/BRD9 in human HeLa cells assessed as protein degradation by Western blot analysis
[10] = test system: Cereblon/Bromodomain-containing protein 9 (Homo sapiens); experiment: PROTAC activity at CRBN/BRD9 in human HeLa cells assessed as induction of protein degradation by measuring maximal degradation relative to control
[11] = target: T4, Estrogen receptor (Homo sapiens) (UniProt P03372); experiment: Induction of ERalpha degradation in human MCF7 cells assessed as maximal degradation relative to control; assay type: cell-based
T4 sequence (whole entry): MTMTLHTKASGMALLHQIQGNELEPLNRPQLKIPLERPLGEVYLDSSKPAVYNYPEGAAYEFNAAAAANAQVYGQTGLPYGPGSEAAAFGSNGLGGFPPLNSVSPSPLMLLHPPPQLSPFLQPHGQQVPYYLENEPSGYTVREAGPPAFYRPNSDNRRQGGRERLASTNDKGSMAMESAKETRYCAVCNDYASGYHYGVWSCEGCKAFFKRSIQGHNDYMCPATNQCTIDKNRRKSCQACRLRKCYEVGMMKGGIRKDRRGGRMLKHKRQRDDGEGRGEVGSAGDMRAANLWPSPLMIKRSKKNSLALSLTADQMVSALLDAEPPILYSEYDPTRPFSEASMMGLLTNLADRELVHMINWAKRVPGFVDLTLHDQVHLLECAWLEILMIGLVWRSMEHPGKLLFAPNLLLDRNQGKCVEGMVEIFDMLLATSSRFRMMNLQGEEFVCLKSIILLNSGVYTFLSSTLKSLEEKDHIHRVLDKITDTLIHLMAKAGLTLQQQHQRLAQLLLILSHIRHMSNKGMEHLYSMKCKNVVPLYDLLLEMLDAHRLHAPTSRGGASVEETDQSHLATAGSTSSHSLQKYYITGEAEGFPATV

[12] = test system: GTPase KRas (Homo sapiens), P01116 [G12C]; experiment: Binding affinity to KRAS G12 mutant (unknown origin) assessed as kinact/Ki ratio
[13] = target: Tyrosine-protein kinase JAK1 (Homo sapiens, UniProt P23458); experiment: Inhibition of JAK1 (unknown origin)
[14] = target: T5, B-cell lymphoma 6 protein (Homo sapiens, UniProt P41182); experiment: Induction of BCL6 degradation in human SU-DHL-4 cells; assay type: cell-based
[15] = target: T5, B-cell lymphoma 6 protein; experiment: Induction of BCL6 degradation in human SU-DHL-4 cells assessed as maximal degradation relative to control; assay type: cell-based

Ratio [1]: 1100 s⁻¹ M⁻¹
Structure (SMILES): C=CC(=O)N1CCN(c2ncnc3c(F)c(-c4c(O)cccc4F)c(Cl)cc23)CC1

DC50 [2]: 11 nM
Emax [3]: 69%
Structure (SMILES): O=C1CCC(N2Cc3cc(C4CCN(Cc5ccccc5)CC4)ccc3C2=O)C(=O)N1 (centres undefined)

Ratio [1]: 0.33 s⁻¹ M⁻¹
Structure (SMILES): C=CS(=O)(=O)NC1CCN(C(=O)CNc2cc(I)c(Cl)cc2O)CC1

DC50 [4]: 63 nM
Emax [5]: 91%
Structure (SMILES): Cc1ncsc1-c1ccc([C@H](C)NC(=O)[C@@H]2C[C@@H](O)CN2C(=O)[C@@H](NC(=O)CCCCCC(=O)N2CCN(CC[C@H](CSc3ccccc3)Nc3ccc(S(=O)(=O)NC(=O)c4ccc(N5CCN(CC6=C(c7ccc(Cl)cc7)CCC(C)(C)C6)CC5)cc4)cc3S(=O)(=O)C(F)(F)F)CC2)C(C)(C)C)cc1 [DT-2216]

DC50 [6]: 23 nM
Emax [7]: > 80%
Structure (SMILES): Cc1ncsc1-c1ccc([C@H](C)NC(=O)[C@@H]2C[C@@H](O)CN2C(=O)[C@@H](NC(=O)CCCCCCCCCCNC(=O)CCc2cccc(-c3ccc4nc(-c5cccnc5N)n(-c5ccc(C6(N)CCC6)cc5)c4n3)c2)C(C)(C)C)cc1

Emax [8]: 81%
Structure (SMILES): Cc1ncsc1-c1ccc([C@H](CC[C@H](C)CCN2CCC(c3ccc4c(c3)n(C3CCCC3)c3nc(=O)c5c(Br)cccc5n43)CC2)NC(=O)[C@@H]2C[C@@H](O)CN2C(=O)[C@@H](NC(=O)C2(F)CC2)C(C)(C)C)cc1

DC50 [9]: 3 nM
Emax [10]: 96%
Structure (SMILES): COc1cc(-c2cn(C)c(=O)c(C)c2C)cc(OC)c1CN1CC[C@H](N2CCN(c3ccc(N[C@H]4CCC(=O)NC4=O)cc3F)CC2)C(F)(F)C1 [SENDEGOBRESIB]

DC50 [9]: < 1 nM
Emax [10]: 97%
Structure (SMILES): COc1cc(-c2cn(C)c(=O)c3cnc(N4CCC4)cc23)cc(OC)c1CN1CCC(CN2CCC3(CC2)CN(c2ccc4c(c2)C(=O)N([C@H]2CCC(=O)NC2=O)C4)C3)CC1

Emax [11]: 80%
Structure (SMILES): O=C1CC[C@H](N2Cc3cc(N4CCN(CC5CCN(c6ccc([C@@H]7c8ccc(O)cc8CC[C@@H]7c7ccccc7)cc6)CC5)CC4)ccc3C2=O)C(=O)N1

Ratio [12]: 27000 s⁻¹ M⁻¹
Structure (SMILES): C=CC(=O)N1CCN(c2nc(OC[C@@H]3CCCN3C)nc3c(F)c(-c4nc(N)cc(C)c4C(F)(F)F)c(Cl)cc23)[C@@H](C)C1

IC50 [13]: 32 nM
Structure (SMILES): CS(=O)(=O)N1CC[C@H](C#CC(=O)N2CCC[C@@H](c3ccc(Cl)c(Cl)c3)C2)C1

DC50 [14]: 20 nM
Emax [15]: > 80%
Structure (SMILES): CNC(=O)COc1cc2cc(Nc3nc(N4C[C@H](C)C[C@H](C)C4)ncc3Cl)ccc2n(C)c1=O

Ratio [1]: 250 s⁻¹ M⁻¹
Structure (SMILES): C=CC(=O)N1CC(N2CCN(C(=O)CNc3cc(C4(C)CC4)c(Cl)cc3O)CC2)C1
